Laboratory results as given in patent US20180291070A1, “PEPTIDES, AND USES THEREOF” (priority 2015, published 2018).
“And” between values parts separate entries of the source, which are not always exact repeats. Equal entries are not always repeated.

system: Human Dermal Fibroblasts (HDF); assay: BrdU Cell Proliferation Assay; assay type: cell-based; conditions: 5, 0.5 or 0.05 μg/ml synthetic peptide 24 h
Description: BrDu is incorporated into newly synthesised DNA strands of actively proliferating cells. Following partial denaturation of double stranded DNA, Brdu is detected immunochemically allowing the assessment of the population of cells which are synthesizing DNA. Human Dermal Fibroblasts (HDF—Sigma 10605a) were seeded in a 96 well plate at 10,000 cells per well in DMEM containing 10% fetal calf serum (FCS), 1% Pen/strep, 1% L-glutamine and allowed to adhere for 24 h. Following the initial 24 h incubation the cells were incubated with 5 μg/ml, 0.5 μg/ml or 0.05 μg/ml synthetic peptide for 24 h respectively. After 18 h incubation with synthetic peptides 20 μl BrDu reagent was added to each well. At 24 h incubation the cell were fixed and the amount of […] was measured using the BrdU Cell Proliferation Assay, all steps were carried out according to the manufacturer's instructions. Results were calculated as a percentage of the untreated control. An increase in optical density reading indicates greatER incorporation of BrDu and increase cell proliferation.

| Substance | INCREASE IN PROLIFERATION |
| --- | --- |
| 73 (SIFRALPNDVLANAYRISREE) [compound 73] | 16% |
| 74 (SIFRALPND) [compound 74] | 29% |
| 83 (SYQDVYNVAESS) [compound 83] | 32% |
| 84 (ISREEAQR) [compound 84] | 20% |
| 97 (GEIVRVER) [compound 97] | 26% |
| 98 (RGLSLLQPYASLQ) [compound 98] | 49% |
| 112 (GEELGAFTPR) [compound 112] | 15% |
| 114 (SIEQHSGQNIFSGFNNELLSEALGVNALVAK) [compound 114] | 119% |
| 121 (PNVNPWHNPRQGGF) [compound 121] | 48% |
| 124 (FYNEGDAPVVAL) [compound 124] | 15% |
| 146 (VFIDHPSFLEK) [compound 146] | 80% |
| 158 (NNQRNFLAGDEDNVISQIQRPVKE) [compound 158] | 21% |
| 181 (DLAIPVNRPGQLQS) [compound 181] | 33% |
| 222 (DDEEEEQGEEEINK) [compound 222] | 110% |
| 226 (KEDDEEEEQGEEEINK) [compound 226] | 30% |
| 247 (LVDLVIPVNGPGKFEAFDLAK) [compound 247] | 28% |
| 248 (DNVISQIENPVKE) [compound 248] | 86% |
| 249 (VVIIPAGHPVAITASSNLNLLGFG) [compound 249] | 30% |
| 252 (VIPVNGPGKF) [compound 252] | 111% |
| 253 (SKKSLPSE) [compound 253] | 112% |
| 256 (IPVNGPGKF) [compound 256] | 117% |
| 257 (LPQHIDADL) [compound 257] | 118% |

| Substance | INCREASE IN PROLIFERATION |
| --- | --- |
| 270 (HGEWRPSYEKQEDEEEK) [compound 270] | 47% |
| 272 (PSYEKEEDEEEGQR) [compound 272] | 97% |
| 285 (VVIIPAGHPVA) [compound 285] | 81% |
| 330 (NKNQYLRGFS) [compound 330] | 18% |
| 337 (NKNQYLRGFSKNILE) [compound 337] | 8% |
| 359 (GTSSVINNLPLDVVAATFNLQRNE) [compound 359] | 15% |
| 365 (AGTSSVINNLPLDV) [compound 365] | 58% |
| 403 (HPVAVRASSNLNLLGFGINAE) [compound 403] | 51% |
| 410 (TLFLPQYTDADFILVVLSGK) [compound 410] | 73% |
| 452 (YYGEQQQQPGMTR) [compound 452] | 76% |
| 453 (SYEESMPMPLEQGWSSSSSE) [compound 453] | 25% |
| 454 (YYGEGSSEEGYYGEQQQQPGMTR) [compound 454] | 38% |
| 455 (QQQQPGMTRV) [compound 455] | 47% |
| 457 (SYEESMPMPLEQGWSSSSSEY) [compound 457] | 114% |
| 460 (GEGSSEEGYYGEQQQQPGMTR) [compound 460] | 38% |
| 461 (YGEGSSEEGYYGEQQQQPGMTR) [compound 461] | 85% |
| 462 (QQQQPGMTRVR) [compound 462] | 15% |
| 463 (QYAAQLPSMCRVEPQQCSIFAAGQY) [compound 463] | 100% |
| 464 (TVFNGVLRPGQL) [compound 464] | 18% |
| 465 (TVFNGVLRPGQLL) [compound 465] | 96% |
| 467 (NGVLRPGQL) [compound 467] | 90% |
| 468 (ALVAKRLQGQNDQRGEI) [compound 468] | 82% |

| Substance | INCREASE IN PROLIFERATION |
| --- | --- |
| 470 (PRYSNTPGMV) [compound 470] | 119% |
| 471 (YSNTPGMVY) [compound 471] | 38% |
| 472 (LVPRYSNTPGM) [compound 472] | 77% |
| 473 (FYNEGDAPVV) [compound 473] | 41% |
| 474 (FYNEGDAPVVAL) [compound 474] | 121% |
| 477 (FYNEGDAPVVA) [compound 477] | 81% |
| 478 (EVEERSQNIF) [compound 478] | 76% |
| 479 (VEERSQNIFSGF) [compound 479] | 106% |
| 480 (ASLQEQEQGQVQ) [compound 480] | 102% |
| 482 (ASLQEQEQGQVQSR) [compound 482] | 113% |
| 495 (SGFSTELLSEALGVSSQVAR) [compound 495] | 68% |
| 496 (GAFTPLQYKSYQD) [compound 496] | 51% and 81% |
| 497 (GLLLPHYTNGASLVY) [compound 497] | 58% |
| 499 (ALPTDVLANAYR) [compound 499] | 113% |
| 500 (DFLLAGNK) [compound 500] | 6% |
| 501 (DVLANAYR) [compound 501] | 43% |
| 502 (GAFTPLQYK) [compound 502] | 68% |
| 503 (QGDVIALPAGVAHW) [compound 503] | 125% |
| 504 (FGAFTPLQYKSY) [compound 504] | 119% |
| 505 (FLLAGNKRNPQAYR) [compound 505] | 118% |
